Measured values reported in BigSolDB 2.1.

O=C(O)c1ccccc1O
solubility (mole fraction)
Details	278.15 K	283.15 K	288.15 K	293.15 K	298.15 K	303.15 K	308.15 K	313.15 K	318.15 K
in ethanol	0.108	0.117	0.126	0.136	0.145	0.157	0.17	0.182	0.197
in n-butanol	0.106	0.116	0.126	0.137	0.148	0.16	0.174	0.186	0.201
in n-heptanol	0.117	0.128	0.138	0.148	0.16	0.171	0.185	0.197	0.21
in n-hexanol	0.116	0.127	0.137	0.146	0.158	0.169	0.182	0.195	0.209
in n-pentanol	0.113	0.123	0.132	0.144	0.155	0.166	0.18	0.192	0.206
in n-propanol	0.102	0.111	0.12	0.131	0.143	0.154	0.168	0.181	0.196
